According to publication PMC6017358 (Molecules : A Journal of Synthetic Chemistry and Natural …, 2018):
Values after ≈ are worked out from the molar mass of the structure shown. Values joined by “and” are separate entries in the source; they are usually repeats but may differ in a detail not shown here. Identical values can stand only once. Counter-ions that a name gives are not always drawn. Like-named read-outs stand apart in the source and are kept apart here.

What was measured:
[1] = test system: breast cancer cell line MCF-7; assay: In vitro cytotoxicity viability assay (crystal violet); format: cell-based; settings: Homo sapiens, MCF7
Experimental: (§1) The cells were seeded in 96-well plates at a cell concentration of 1 × 10^4 cells per well in 100 µL of growth medium. Fresh medium containing different concentrations of the test sample was added 24 h after seeding. Serial two-fold dilutions of the tested chemical compound were added to confluent cell monolayers dispensed into 96-well, flat-bottomed microliter plates (Falcon, NJ, USA) using a multichannel pipette. The microliter plates were incubated at 37 °C in a humidified incubator with 5% CO2 for a period of 48 h. Three wells were used for each concentration of the test sample. Control cells were incubated without test sample and with or without DMSO. The little percentage of DMSO present in the wells (maximal 0.1%) was found not to affect the experiment. After incubation of the cells at 37 °C, various concentrations of sample were added, and the incubation was continued for 24 h and viable cells yield was determined by a colorimetric method. In brief, after the end of the incubation period, media were aspirated and the crystal violet solution (1%) was added to each well for at least 30 min. The stain was removed and the plates were rinsed using tap water until all excess stain is removed. Glacial acetic acid (30%) was then added to all wells and mixed thoroughly, and then the absorbance of the plates were measured after gently shaken on microplate reader (TECAN, Inc., Morrisville, NC, USA), using a wavelength of 490 nm. All results were corrected for background absorbance detected in wells without added stain. Treated samples were compared with the cell control in the absence of the tested compounds. All experiments were carried out in triplicate. The cell cytotoxic effect of each tested concentration was calculated. The optical density was measured with the microplate reader (SunRise, TECAN, Inc., Morrisville, NC, USA) to determine the number of viable cells and the percentage of viability was calculated as [1 − (ODt/ODc)] × 100% where ODt is the mean optical density of wells treated with the tested sample and ODc is the mean optical density of untreated cells. The relation between surviving cells and drug concentration is plotted to get the survival curve of each tumor cell line after treatment. […] The biological evaluation was done at the Regional Center for Mycology & Biotechnology, Al-Azhar University.

[2] = test system: lung cancer cell line A-549; assay: as above; format: cell-based; settings: Homo sapiens, A549
Experimental: as §1

rats = settings: oral administration in rats; cited from earlier work

Row | Structure (SMILES) | IC50 [1] | IC50 [2] | LD50 (rats) [mg/kg] | IC50 ([1]; MCF-7, read-out: IC50) [µg/mL] | IC50 ([2]; read-out: IC50) [µg/mL]
1 | CP(=O)(O)CCC(N)C(=O)O (centres unmarked) [Phosphinothricin, 2-amino-4-(hydroxymethyl-phosphinylbutyric acid ammonium salt] | 32.6 µg/mL and 180 µM | 45.8 µg/mL and 253 µM | 2170 |  | 
2 | NCCCC(O)(P(=O)(O)O)P(=O)(O)O [Alendronate, reference compound] |  |  |  | 89.4 (≈ 359 µM) | 19 (≈ 76.3 µM)
